The values that follow come from patent publication US20100286136A1, “DIHYDRONAPHTHYRIDINYL AND RELATED COMPOUNDS FOR USE IN TREATING OPHTHALMOLOGICAL DISORDERS” (priority 2009, published 2010).

In the experiment the target is T1, CCR2b (Homo sapiens, UniProt P41597).
T1 construct: host or cells: AequoScreen CCR2b cells
T1 sequence (P41597 1-360 isoform P41597-2): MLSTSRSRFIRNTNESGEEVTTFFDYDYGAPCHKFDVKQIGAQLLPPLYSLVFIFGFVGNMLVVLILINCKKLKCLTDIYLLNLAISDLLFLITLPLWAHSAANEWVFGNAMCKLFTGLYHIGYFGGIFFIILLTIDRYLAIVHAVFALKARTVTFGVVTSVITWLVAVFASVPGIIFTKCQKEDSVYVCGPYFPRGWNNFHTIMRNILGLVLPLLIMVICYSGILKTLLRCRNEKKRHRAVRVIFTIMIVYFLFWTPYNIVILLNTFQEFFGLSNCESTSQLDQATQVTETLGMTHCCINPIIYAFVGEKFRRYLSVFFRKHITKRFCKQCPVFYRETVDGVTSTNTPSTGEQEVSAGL
Briefly: AequoScreen CCR2b calcium flux assay, antagonist mode against reference agonist MCP-1. It counts as cell-based. The conditions noted are these: AequoScreen CCR2b (FAST-060A) cells; inhibition of reference agonist MCP-1 at its EC80; read-out: IC50 (μM) Ca^++flux. On the procedure: The biological activity of the compounds described herein can be evaluated using assays known in the art, such as the AequoScreen™ assay.
AequoScreen™ CCR2b (FAST-060A) cells grown to mid-log phase in culture media without antibiotics are detached with PBS-EDTA, centrifuged and resuspended in assay buffer (DMEM/HAM's F12 with HEPES, without phenol red+0.1% BSA protease free) at a concentration of 1×10^6 cells/mL. Cells are incubated at room temperature for at least 4 hours with coelenterazine h. Dose response curves are performed before testing. The reference agonist is MCP-1.
For agonist testing, 50 μL of cell suspension is mixed with 50 μL of test compound in a 96-well plate. The resulting emission of light is recorded using a Hamamatsu Functional Drug Screening System 6000 (FDSS 6000).
Following an incubation of 15 minutes after the first injection, 100 μL of the resulting cell suspension containing the test compound is mixed with 100 μL of the reference agonist in the 96 well test plate. The resulting emission of light is recorded using the same luminometer as for agonist testing.
Agonist activity of a test compound can be expressed as a percentage of the activity of the reference agonist at its EC100 concentration. Antagonist activity of a test compound can be expressed as a percentage of the inhibition of reference agonist activity at its EC80 concentration.
(A change in cytosolic calcium serves as a functional read-out for many receptors and channels.)
As to “3-Ethyl-6-((3-(methoxymethyl)-3-(3-(trifluoromethyl)-5,6,7,8-tetrahydro-1,6-naphthyridine-6-carbonyl)pyrrolidin-1-yl)methyl)benzo[d]oxazol-2(3H)-one [Example 42]”, the IC50 (commonly the concentration that gives 50% inhibition) is below 0.2 µM.

For “5-Bromo-6-((3-(methoxymethyl)-3-(3-(trifluoromethyl)-5,6,7,8-tetrahydro-1,6-naphthyridine-6-carbonyl)pyrrolidin-1-yl)methyl)-3-methylbenzo[d]oxazol-2(3H)-one [Example 43]”, the IC50 was below 0.2 µM.

Regarding `Cn1c(=O)ccc2ccc(CN3CCC(CC4CC4)(C(=O)N4CCc5ncc(C(F)(F)F)cc5C4)C3)cc21` (single isomer, unassigned) [Example 4, 5 (Enantiomer I)], the concentration for half-maximal inhibition (IC50) is below 0.2 µM. `Cn1c(=O)ccc2ccc(CN3CCC(CC4CC4)(C(=O)N4CCc5ncc(C(F)(F)F)cc5C4)C3)cc21` (single isomer, unassigned) [Example 4, 5 (Enantiomer II)]: the half-maximal inhibitory concentration (IC50) is below 0.2 µM. For `COCC1(C(=O)N2CCc3ncc(C(F)(F)F)cc3C2)CCN(Cc2ccc3ccc(=O)n(C)c3c2)C1` (single isomer, unassigned) [Example 26, 27 (Enantiomer I)], the IC50 was below 0.2 µM. The result for `COCC1(C(=O)N2CCc3ncc(C(F)(F)F)cc3C2)CCN(Cc2ccc3ccc(=O)n(C)c3c2)C1` (single isomer, unassigned) [Example 26, 27 (Enantiomer II)] reads above 1 µM; that for `COCC1(C(=O)N2CCc3ncc(C(F)(F)F)cc3C2)CCN(C2CCC(O)(c3ccc(OC)nc3)CC2)C1` (single isomer, unassigned) [Example 30, 31 (Isomer I), (1-(4-Hydroxy-4-(6-methoxypyridin-3-yl)cyclohexyl)-3-(methoxymethyl)pyrrolidin-3-yl)(3-(trifluoromethyl)-7,8-dihydro-1,6-naphthyridin-6(5H)-yl)methanone], below 0.2 µM; that for `COCC1(C(=O)N2CCc3ncc(C(F)(F)F)cc3C2)CCN(C2CCC(O)(c3ccc(OC)nc3)CC2)C1` (single isomer, unassigned) [Example 30, 31 (Isomer II), (1-(4-Hydroxy-4-(6-methoxypyridin-3-yl)cyclohexyl)-3-(methoxymethyl)pyrrolidin-3-yl)(3-(trifluoromethyl)-7,8-dihydro-1,6-naphthyridin-6(5H)-yl)methanone], above 1 µM. The same measure for `COCC1(C(=O)N2CCc3ncc(C(F)(F)F)cc3C2)CCN(Cc2ccc3oc(=O)n(C)c3c2)C1` (single isomer, unassigned) [Example 40, 41 (Enantiomer I)]: below 0.2 µM; for `COCC1(C(=O)N2CCc3ncc(C(F)(F)F)cc3C2)CCN(Cc2ccc3oc(=O)n(C)c3c2)C1` (single isomer, unassigned) [Example 40, 41 (Enantiomer II)]: 0.2 to 1 µM; for `COCC1(C(=O)N2CCc3ncc(C(F)(F)F)cc3C2)CCN(C2CCC(c3ccc(OC)nc3)CC2)C1` (single isomer, unassigned) [Example 50, 51 (Isomer I), (3-(Methoxymethyl)-1-(4-(6-methoxypyridin-3-yl)cyclohexyl)pyrrolidin-3-yl)(3-(trifluoromethyl)-7,8-dihydro-1,6-naphthyridin-6(5H)-yl)methanone]: below 0.2 µM. The same measure for `COCC1(C(=O)N2CCc3ncc(C(F)(F)F)cc3C2)CCN(C2CCC(c3ccc(OC)nc3)CC2)C1` (single isomer, unassigned) [Example 50, 51 (Isomer II), (3-(Methoxymethyl)-1-(4-(6-methoxypyridin-3-yl)cyclohexyl)pyrrolidin-3-yl)(3-(trifluoromethyl)-7,8-dihydro-1,6-naphthyridin-6(5H)-yl)methanone]: below 0.2 µM; for `COCC1(C(=O)N2CCc3ncc(C(F)(F)F)cc3C2)CCN(C2CCC(c3cncnc3)CC2)C1` (single isomer, unassigned) [Example 54, 55 (Isomer II), (3-(Methoxymethyl)-1-(4-(pyrimidin-5-yl)cyclohexyl)pyrrolidin-3-yl)(3-(trifluoromethyl)-7,8-dihydro-1,6-naphthyridin-6(5H)-yl)methanone]: 0.2 to 1 µM.

As to `COCC1(C(=O)N2CCc3ncc(C(F)(F)F)cc3C2)CCN(C2CCC(c3ccc(F)cc3)CC2)C1` (single isomer, unassigned) [Example 56, 57 (Isomer I), (1-(4-(4-Fluorophenyl)cyclohexyl)-3-(methoxymethyl)pyrrolidin-3-yl)(3-(trifluoromethyl)-7,8-dihydro-1,6-naphthyridin-6(5H)-yl)methanone], the half-inhibitory concentration (IC50) was below 0.2 µM.

For `CC(C)CC1(C(=O)N2CCc3ncc(C(F)(F)F)cc3C2)CCN(Cc2ccc3ccc(=O)n(C)c3c2)CC1` [Example 1, 7-((4-Isobutyl-4-(3-(trifluoromethyl)-5,6,7,8-tetrahydro-1,6-naphthyridine-6-carbonyl)piperidin-1-yl)methyl)-1-methylquinolin-2(1H)-one], the 50% inhibitory concentration (IC50) is 0.2 to 1 µM.

`COc1cc(CN2CCC(CC(C)C)(C(=O)N3CCc4ncc(C(F)(F)F)cc4C3)CC2)ccc1O` [Example 2, (1-(4-Hydroxy-3-methoxybenzyl)-4-isobutylpiperidin-4-yl)(3-(trifluoromethyl)-7,8-dihydro-1,6-naphthyridin-6(5H)-yl)methanone]: the 50% inhibitory concentration (IC50) is above 1 µM. As to `Cn1c(=O)ccc2ccc(CN3CCC(CC4CC4)(C(=O)N4CCc5ncc(C(F)(F)F)cc5C4)C3)cc21` (stereo not shown) [Example 3, 7-((3-(Cyclopropylmethyl)-3-(3-(trifluoromethyl)-5,6,7,8-tetrahydro-1,6-naphthyridine-6-carbonyl)pyrrolidin-1-yl)methyl)-1-methylquinolin-2(1H)-one], the IC50 is below 0.2 µM.

As for `COc1cc(CN2CCC(CC3CC3)(C(=O)N3CCc4ncc(C(F)(F)F)cc4C3)C2)ccc1O` (stereo not shown) [Example 6, (1-(4-Hydroxy-3-methoxybenzyl)-3-(cyclopropylmethyl)pyrrolidin-3-yl)(3-(trifluoromethyl)-7,8-dihydro-1,6-naphthyridin-6(5H)-yl)methanone], the half-inhibitory concentration (IC50) was 0.2 to 1 µM. Turning to `O=C(N1CCc2ncc(C(F)(F)F)cc2C1)C1(CC2CC2)CCN(Cc2ccc(O)c(F)c2)C1` (stereo not shown) [Example 7, (3-(Cyclopropylmethyl)-1-(3-fluoro-4-hydroxybenzyl)pyrrolidin-3-yl)(3-(trifluoromethyl)-7,8-dihydro-1,6-naphthyridin-6(5H)-yl)methanone], the 50% inhibitory concentration (IC50) was above 1 µM. As to `O=C(N1CCc2ncc(C(F)(F)F)cc2C1)C1(CC2CC2)CCN(CC2CCOCC2)C1` (stereo not shown) [Example 8, (3-(Cyclopropylmethyl)-1-((tetrahydro-2H-pyran-4-yl)methyl)pyrrolidin-3-yl)(3-(trifluoromethyl)-7,8-dihydro-1,6-naphthyridin-6(5H)-yl)methanone], the 50% inhibitory concentration (IC50) fell in the range of 0.2 to 1 µM.

In the case of `CC1(C)CC(CN2CCC(CC3CC3)(C(=O)N3CCc4ncc(C(F)(F)F)cc4C3)C2)CCO1` (stereo not shown) [Example 9, (3-(Cyclopropylmethyl)-1-((2,2-dimethyltetrahydro-2H-pyran-4-yl)methyl)pyrrolidin-3-yl)(3-(trifluoromethyl)-7,8-dihydro-1,6-naphthyridin-6(5H)-yl)methanone], the 50% inhibitory concentration (IC50) fell in the range of 0.2 to 1 µM.

As for `COc1cc2c(cc1CN1CCC(CC3CC3)(C(=O)N3CCc4ncc(C(F)(F)F)cc4C3)C1)OC(C)C2` (stereo not shown) [Example 10, (3-(Cyclopropylmethyl)-1-((5-methoxy-2-methyl-2,3-dihydrobenzofuran-6-yl)methyl)pyrrolidin-3-yl)(3-(trifluoromethyl)-7,8-dihydro-1,6-naphthyridin-6(5H)-yl)methanone], the IC50 was above 1 µM. `Cn1c(=O)sc2ccc(CN3CCC(CC4CC4)(C(=O)N4CCc5ncc(C(F)(F)F)cc5C4)C3)cc21` (stereo not shown) [Example 11, 5-((3-(Cyclopropylmethyl)-3-(3-(trifluoromethyl)-5,6,7,8-tetrahydro-1,6-naphthyridine-6-carbonyl)pyrrolidin-1-yl)methyl)-3-methylbenzo[d]thiazol-2(3H)-one]: the IC50 is below 0.2 µM. For `O=C(N1CCc2ncc(C(F)(F)F)cc2C1)C1(CC2CC2)CCN(Cc2ccc3sc(=O)[nH]c3c2)C1` (stereo not shown) [Example 12, 5-((3-(Cyclopropylmethyl)-3-(3-(trifluoromethyl)-5,6,7,8-tetrahydro-1,6-naphthyridine-6-carbonyl)pyrrolidin-1-yl)methyl)benzo[d]thiazol-2(3H)-one], the IC50 lay in the range of 0.2 to 1 µM. As to `O=C(N1CCc2ncc(C(F)(F)F)cc2C1)C1(CC2CC2)CCN(Cc2ccc3ccc(=O)[nH]c3c2)C1` (stereo not shown) [Example 15, 7-((3-(Cyclopropylmethyl)-3-(3-(trifluoromethyl)-5,6,7,8-tetrahydro-1,6-naphthyridin-6-carbonyl)pyrrolidin-1-yl)methyl)quinolin-2(1H)-one], the concentration for half-maximal inhibition (IC50) is above 1 µM.
